Results as given in patent US4766141A, “Spiro-succinimides for treatment of diabetes complications” (Pfizer Inc., priority 1987, dated 1988).

Tests used:
[1] = Titration with 0.5 N sodium hydroxide (pKa); format: physicochemical
Procedure: A. 12.5 g. of crude 5-carboxy-3-cyano-3-(3-fluorophenyl)-5-methylhexanoic acid dimethyl ester was combined with 62.5 ml. of concentrated sulfuric acid and was heated at 70° C. for 2.5 hours. The reaction was quenched over ice and extracted with three-100 ml. portions of ethyl acetate. The ethyl acetate solution was extracted with pH 11 aqueous sodium hydroxide. The aqueous base layer was washed with ethyl acetate, and the aqueous layer was adjusted to pH 2 with hydrochloric acid and extracted with four-100 ml. portions of ethyl acetate. After drying over anhydrous sodium sulfate, the ethyl acetate extract was concentrated in vacuo to an oil and eventually to a white foam. This was triturated for 20 hours with isopropyl alcohol-diethyl ether to give, after drying at 110° C. at reduced pressure, 610 mg. of the title compound, m.p. 200°-202° C. (shrinks), 212°-215° C. (decomp.). Anal. (C14 H12 O3 NF). Calcd. C,64.36; H,4.63; N,5.36. Found: C,64.25; H,4.60; N,5.42. IR(KBr): 3228, 1723, 1705, 1692, 1605, 1343, 1236, 1199, 1186 cm^-1. NMR 250 MHZ (CD3 SOCD3):δ11.7 (vbs, 1, NH), 7.97(m, 1), 7.31(m, 1 ), 7.13(m, 1), 3.5-2.1(m, 5), and 1.16(d, 3) ppm. […] This experiment defines the structure of the major diasteromer as the title spiro[naphthalene pyrrolidine]trione rather than the alternate indanone spiro-methyl glutarimide cyclization product. […]

[2] = target: T1, aldose reductase obtained from human placenta (Homo sapiens, UniProt P15121); experiment: Inhibition of aldose reductase obtained from human placenta; format: biochemical; conditions: relative to activity in absence of inhibitor, read-out: percent inhibition of aldose reductase enzyme activity
T1 construct: aldose reductase obtained from human placenta; from tissue; host or cells: human placenta
Procedure: Rel 1,3'S,3R Spiro[naphthalene-1(4H),3'-pyrrolidine]-2',4,5'-trione-2,3-dihydro-7-fluoro-3-methyl, the product prepared according to the procedure of Example 1B, was tested for inhibition of aldose reductase obtained from human placenta by using the procedure described by M. J. Peterson et al. in Metabolism, Vol. 28, No. 4, Suppl. 1, p. 456 (1979). The results obtained are expressed in terms of the percent inhibition of aldose reductase enzyme activity (i.e., relative to the aldose activity in the absence of inhibitor) afforded by the compound at three different molar concentration levels (viz., 10^-5, 10^-6 and 10^-7 M).

[3] = system: sorbitol accumulation in the sciatic nerve and lens of diabetic rats; experiment: Inhibition of sorbitol accumulation in sciatic nerve and lens of streptozotocin-diabetic rats; format: in vivo; conditions: sacrifice at 27 h, relative to control
Procedure: Rel 1,3'S,3R Spiro[naphthalene-1(4H),3'-pyrrolidine]-2', 4,5'-trione-2,3-dihydro-7-fluoro-3-methyl, the product prepared according to the procedure of Example 1B, was tested for its ability to reduce or inhibit sorbitol accumulation in the sciatic nerve and lens of diabetic rats. This was done by following the procedure described by M. J. Peterson et al. in Metabolism, Vol. 28, No. 4, Suppl. 1, p. 456 (1979). A single intravenous dose of streptozotocin (85 mg./kg.) was administered to rats. The test compound was fed to the rats orally at four, seven and 24 hours after the administration of the streptozotocin. At 27 hours after streptozotocin administration, the animals were sacrificed and the sciatic nerve and lens were both removed for sorbitol assay. The control animals were given the same streptozotocin treatment, but were not given the test compound. The results obtained are expressed in terms of percent inhibition of sorbitol (i.e., relative to the control) afforded by the test compound in both the sciatic nerve and lens at three different dosage levels tested (viz., 2.5, 1.5 and 1.0 mg./kg.).

pKa ([1]; in 1:1 dioxane-water): 9.59 | pKa ([1]; in water): 8.25 | inhibition at 10 µM ([2]; 10^-5 M): 78% | inhibition at 1 µM ([2]; 10^-6 M): 41% | inhibition at 0.1 µM ([2]; 10^-7 M): 3%
Compound: C[C@@H]1C[C@]2(CC(=O)NC2=O)c2cc(F)ccc2C1=O (relative stereo) [Example 1, Rel 1,3'S, 3R Spiro[naphthalene-1(4H), 3'-pyrrolidine]-2', 4,5'-trione-2,3-dihydro-7-fluoro-3-methyl]
percent inhibition of sorbitol ([3]; lens, 1.0 mg./kg. oral at 4, 7 and 24 h after streptozotocin): 39% | percent inhibition of sorbitol ([3]; lens, 1.5 mg./kg. oral at 4, 7 and 24 h after streptozotocin): 39% | percent inhibition of sorbitol ([3]; sciatic nerve, 1.0 mg./kg. oral at 4, 7 and 24 h after streptozotocin): 69% | percent inhibition of sorbitol ([3]; sciatic nerve, 1.5 mg./kg. oral at 4, 7 and 24 h after streptozotocin): 76%
